Measured values published in ChEMBL document CHEMBL1201862, “PubChem BioAssay data set” (2004).
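The compound was tested at five concentrations on cells cultured in 96-well plates, with a 48-hour exposure period. GI50 = concentration required for 50% inhibition of growth.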 The source made the active and inactive calls. Cut-off read from the data, not from the text of the source: active = GI50 up to about 1.1 µM and inactive = higher.

Tests used:
Assay in all cases: NCI-60 cell line screen, 48 h
M19-MEL = system: M19-MEL
LXFL 529 = system: LXFL 529
HL-60 = system: HL-60
HCT-116 = system: HCT-116
SK-OV-3 = system: SK-OV-3
SNB-19 = system: SNB-19
SK-MEL-28 = system: SK-MEL-28
SF-539 = system: SF-539
SW-620 = system: SW-620
KM-20L2 = system: KM-20L2
DMS-273 = system: DMS-273
ACHN = system: ACHN
SNB-78 = system: SNB-78
OVCAR-5 = system: OVCAR-5
HOP-92 = system: HOP-92
TK-10 = system: TK-10
RXF 631 = system: RXF 631
OVCAR-3 = system: OVCAR-3
786-0 = system: 786-0
U-251 = system: U-251
A549 = system: A549
EKVX = system: EKVX
IGROV-1 = system: IGROV-1
SK-MEL-2 = system: SK-MEL-2
SR = system: SR
OVCAR-8 = system: OVCAR-8
MOLT-4 = system: MOLT-4
RXF 393 = system: RXF 393
SF-295 = system: SF-295
UACC-257 = system: UACC-257
SN12C = system: SN12C
HCC 2998 = system: HCC 2998
NCI-H460 = system: NCI-H460
SNB-75 = system: SNB-75
HOP-62 = system: HOP-62
HCT-15 = system: HCT-15
NCI-H226 = system: NCI-H226
CCRF-CEM = system: CCRF-CEM
UACC-62 = system: UACC-62
HT-29 = system: HT-29
UO-31 = system: UO-31
SF-268 = system: SF-268
Malme-3M = system: Malme-3M
HOP-18 = system: HOP-18
RPMI-8226 = system: RPMI-8226
XF498 = system: XF498
NCI-H23 = system: NCI-H23
LOX IMVI = system: LOX IMVI
COLO 205 = system: COLO 205
CAKI-1 = system: CAKI-1
NCI-H522 = system: NCI-H522
K562 = system: K562
KM12 = system: KM12
DLD-1 = system: DLD-1
M14 = system: M14
OVCAR-4 = system: OVCAR-4

Question: Which results are given for `O=C(O)c1c2c(cc3c(=O)c4ccccc4[nH]c13)CCCC2`?
Answer: GI50 (M19-MEL): > 100 µM (inactive); GI50 (LXFL 529): > 100 µM (inactive); GI50 (HL-60): > 100 µM (inactive); GI50 (HCT-116): 82 µM (inactive); GI50 (SK-OV-3): > 100 µM (inactive); GI50 (SNB-19): 88.5 µM (inactive); GI50 (SK-MEL-28): > 100 µM (inactive); GI50 (SF-539): > 100 µM (inactive); GI50 (SW-620): 65.2 µM (inactive); GI50 (KM-20L2): > 100 µM (inactive); GI50 (DMS-273): 83 µM (inactive); GI50 (ACHN): > 100 µM (inactive); GI50 (SNB-78): > 100 µM (inactive); GI50 (OVCAR-5): > 100 µM (inactive); GI50 (HOP-92): 59.7 µM (inactive); GI50 (TK-10): > 100 µM (inactive); GI50 (RXF 631): > 100 µM (inactive); GI50 (OVCAR-3): > 100 µM (inactive); GI50 (786-0): 72.8 µM (inactive); GI50 (U-251): > 10 µM (inactive); GI50 (A549): > 100 µM (inactive); GI50 (EKVX): > 100 µM (inactive); GI50 (IGROV-1): > 100 µM (inactive); GI50 (SK-MEL-2): > 100 µM (inactive); GI50 (SR): > 100 µM (inactive); GI50 (OVCAR-8): > 100 µM (inactive); GI50 (MOLT-4): > 100 µM (inactive); GI50 (RXF 393): > 100 µM (inactive); GI50 (SF-295): 68.5 µM (inactive); GI50 (UACC-257): > 100 µM (inactive); GI50 (SN12C): > 100 µM (inactive); GI50 (HCC 2998): 46.3 µM (inactive); GI50 (NCI-H460): > 100 µM (inactive); GI50 (SNB-75): > 100 µM (inactive); GI50 (HOP-62): > 100 µM (inactive); GI50 (HCT-15): 62.7 µM; GI50 (NCI-H226): > 100 µM (inactive); GI50 (CCRF-CEM): > 100 µM (inactive); GI50 (UACC-62): 76.7 µM (inactive); GI50 (HT-29): > 100 µM (inactive); GI50 (UO-31): > 100 µM (inactive); GI50 (SF-268): > 100 µM (inactive); GI50 (Malme-3M): > 100 µM (inactive); GI50 (HOP-18): > 100 µM (inactive); GI50 (RPMI-8226): > 100 µM (inactive); GI50 (XF498): > 100 µM (inactive); GI50 (NCI-H23): > 100 µM (inactive); GI50 (LOX IMVI): 60.5 µM (inactive); GI50 (COLO 205): > 100 µM (inactive)

Question: For `CN(C)CCn1c2c3ccccc3ccc2c2oc(=O)c3ccccc3c21`, which GI50 (M19-MEL) is on record?
Answer: Its GI50 is 5.46 µM (inactive).

Question: What about the GI50 (LXFL 529) of the same molecule?
Answer: The GI50 was 4.98 µM (inactive).

Question: What about the GI50 (HL-60) of the same molecule?
Answer: The GI50 was > 100 µM (inactive).

Question: And the GI50 (CAKI-1)?
Answer: The GI50 was 6.37 µM (inactive).

Question: And the GI50 (HCT-116)?
Answer: The GI50 was 4.2 µM (inactive).

Question: And the GI50 (SK-OV-3)?
Answer: Its GI50 is 0.895 µM (active).

Question: What about the GI50 (SNB-19) of the same molecule?
Answer: Its GI50 is 10.3 µM (inactive).

Question: And the GI50 (SK-MEL-28)?
Answer: Its GI50 is 5.68 µM (inactive).

Question: What about the GI50 (SF-539) of the same molecule?
Answer: Its GI50 is 2.5 µM (inactive).

Question: And the GI50 (SW-620)?
Answer: Its GI50 is 4 µM (inactive).

Question: And the GI50 (KM-20L2)?
Answer: The GI50 was 7.08 µM (inactive).

Question: What about the GI50 (ACHN) of the same molecule?
Answer: The GI50 was 5.24 µM (inactive).

Question: And the GI50 (SNB-78)?
Answer: Its GI50 is 19.7 µM (inactive).

Question: What about the GI50 (OVCAR-5) of the same molecule?
Answer: Its GI50 is 19.5 µM (inactive).

Question: And the GI50 (HOP-92)?
Answer: The GI50 was 5.58 µM (inactive).

Question: What about the GI50 (TK-10) of the same molecule?
Answer: Its GI50 is 12.6 µM (inactive).

Question: What about the GI50 (RXF 631) of the same molecule?
Answer: Its GI50 is 4.53 µM (inactive).

Question: What about the GI50 (OVCAR-3) of the same molecule?
Answer: Its GI50 is 4.4 µM (inactive).

Question: What about the GI50 (786-0) of the same molecule?
Answer: The GI50 was 2.36 µM (inactive).

Question: What about the GI50 (U-251) of the same molecule?
Answer: The GI50 was 7.46 µM (inactive).

Question: And the GI50 (A549)?
Answer: Its GI50 is 3.88 µM (inactive).

Question: And the GI50 (EKVX)?
Answer: Its GI50 is 12.6 µM (inactive).

Question: What about the GI50 (IGROV-1) of the same molecule?
Answer: The GI50 was 12.1 µM (inactive).

Question: And the GI50 (SK-MEL-2)?
Answer: The GI50 was 17.9 µM (inactive).

Question: What about the GI50 (SR) of the same molecule?
Answer: The GI50 was 2.78 µM (inactive).

Question: And the GI50 (OVCAR-8)?
Answer: Its GI50 is 5.53 µM (inactive).

Question: And the GI50 (MOLT-4)?
Answer: The GI50 was 2.62 µM (inactive).

Question: What about the GI50 (SF-295) of the same molecule?
Answer: Its GI50 is 9.04 µM (inactive).

Question: And the GI50 (UACC-257)?
Answer: The GI50 was 4.83 µM (inactive).

Question: What about the GI50 (NCI-H522) of the same molecule?
Answer: The GI50 was 9.46 µM (inactive).

Question: And the GI50 (NCI-H460)?
Answer: The GI50 was 2.79 µM (inactive).

Question: And the GI50 (SNB-75)?
Answer: The GI50 was 2.3 µM (inactive).

Question: What about the GI50 (HOP-62) of the same molecule?
Answer: Its GI50 is 13.2 µM (inactive).

Question: And the GI50 (HCT-15)?
Answer: The GI50 was 8.34 µM.

Question: What about the GI50 (CCRF-CEM) of the same molecule?
Answer: The GI50 was 4.26 µM (inactive).

Question: What about the GI50 (K562) of the same molecule?
Answer: The GI50 was 4.48 µM (inactive).

Question: And the GI50 (UACC-62)?
Answer: The GI50 was 7.35 µM (inactive).

Question: What about the GI50 (HT-29) of the same molecule?
Answer: The GI50 was 4.86 µM (inactive).

Question: And the GI50 (KM12)?
Answer: The GI50 was 6.71 µM (inactive).

Question: What about the GI50 (UO-31) of the same molecule?
Answer: Its GI50 is 1.61 µM (inactive).

Question: What about the GI50 (DLD-1) of the same molecule?
Answer: The GI50 was 5.11 µM (inactive).

Question: What about the GI50 (SF-268) of the same molecule?
Answer: The GI50 was 2.71 µM (inactive).

Question: What about the GI50 (Malme-3M) of the same molecule?
Answer: Its GI50 is 9.86 µM (inactive).

Question: What about the GI50 (M14) of the same molecule?
Answer: The GI50 was 6.12 µM (inactive).

Question: And the GI50 (OVCAR-4)?
Answer: The GI50 was 6.44 µM (inactive).

Question: What about the GI50 (HOP-18) of the same molecule?
Answer: The GI50 was 16.1 µM (inactive).

Question: And the GI50 (RPMI-8226)?
Answer: The GI50 was 4.35 µM (inactive).

Question: What about the GI50 (XF498) of the same molecule?
Answer: Its GI50 is 15.3 µM (inactive).

Question: And the GI50 (NCI-H23)?
Answer: Its GI50 is 6.3 µM (inactive).

Question: And the GI50 (LOX IMVI)?
Answer: The GI50 was 4.23 µM (inactive).

Question: And the GI50 (COLO 205)?
Answer: The GI50 was 4.17 µM (inactive).
